Reference: publication PMC9775322, “An Integrated Analysis of Mechanistic Insights into Biomolecular Interactions and Molecular Dynamics of Bio-Inspired Cu(II) and Zn(II) Complexes towards DNA/BSA/SARS-CoV-2 3CL^pro by Molecular Docking-Based Virtual Screening and FRET Detection” (Biomolecules, 2022)

Key:
CT-DNA [1] = assay: DNA binding by cyclic voltammetry; parameters: species or system calf
Experimental: The CV experiment was carried out for free substances at 10 µM at room temperature with a 5 mM Tris-HCl/50 mM NaCl buffer solution (pH: 7.4). While CT-DNA increases (0–10 µM) in each sample solution, shifts in potential, including variations in the anodic and cathodic peak currents, have been monitored.
2.2.7. Evaluation of DNA interaction properties using cyclic voltammetry technique The electrochemical analysis is a critical entity to examine the electron transfer reactions of the test compounds. With a scan rate of 0.1V, the CHI 620C electrochemical analyzer was utilized with a three-electrode system consisting of glassy carbon as the working electrode, Ag/AgCl as the reference electrode, and platinum wire as the counter/auxiliary electrode to monitor changes in peak current and peak potential during the interaction between test compound and DNA. The changes in peak current and peak potential further afford data on the binding constant as well as the mode of interaction for test compound –DNA adducts. In single-compartment cells of 5 –15 mL, electrochemical titrations for all test compounds were executed at 25 °C in the absence and presence of DNA. The solutions were then deoxygenated by passing them through N 2 before measurements were made. The electrochemical analysis for free compounds was executed at a 10 µM concentration in the presence of 5mM Tr is-HCl /50 mM NaCl (pH = 7.2) buffer solution. Changes in the anodic […]
and cathodic peak currents, as well as potential shifts, have been observed as CT-DNA concentrations in each solution of complexes rise from 1 to 10 µM [32].
I ) = log [DNA] + log Kb (S24)
The peak currents of the chemical in the absence and presence of deoxyribonucleic acid are designated as I0 and I, respectively.
Kb values for all samples were estimated through the linear regression plot of log (1/[DNA]) versus log (I/I0–I) by method-I. Equation (S26) was attained from equation (S25).
Cf and Cb are represented as the free substance concentration and DNA-interacted compound, respectively, and equation (S28) was obtained by comparing equations (S26) and (S27).
Ipa is denoted as the anodic peak current in amperes, n is represented as the number of electrons participating in the redox (M 1+/M2+) process (n=1), The activation coefficient (charge transfer coefficient) is shown by the symbol α. and the value is equal to 0.5, which is a typically supported approximation for numerous quasi-reversible systems.
2.3. DFT and molecular modelling studies
DFT calculations were performed to comprehend the electronic structure and reactivity of ligand (HL) and metal complexes ( 1b-2b) using the Gaussian 09 package [ 34]. Geometries were fully optimized both in the gas phase and methanol solution using B3LYP, and comparatively later with the CAM-B3LYP and M06-2X functionals. For each complex, the […]

Bacillus cereus = assay: Agar disc diffusion antibacterial test; details: G, (+) Bacillus cereus
[2] = DPPH radical scavenging assay; assay type: biochemical; details: 517 nm
Mucor indicus = assay: Agar disc diffusion antifungal test; details: J
CT-DNA [3] = assay: DNA binding by UV–visible absorption titration; parameters: species or system calf
Experimental: The DNA-binding experiment was performed by a UV–visible spectrophotometer by raising the DNA concentration from zero to 50 μM to the given concentration of all samples (50 μM) in Tris-HCl buffer with a pH of 7.4 at 25 °C [21, 22].
2.2.2. Evaluation of DNA-binding characteristics
By increasing the concentration of DNA (0 –50 μM), electronic absorption titrations were performed at the fixed concentration (50 μM) of all test compounds in aqueous media at room temperature. The Tris-HCl buffer (5mM Tris-HCl /50 mM NaCl, pH = 7.2) solution was guaranteed to be pure and contain sufficient amounts of DNA. Using the molar extinction coefficient (6600 M −1 cm−1) at 260 nm, it was also possible to measure the DNA concentration per nucleotide and polynucleotide, denoting that the DNA was sufficiently free of protein by the ratio of absorbance at 260 and 280 nm of roughly 1.8 –1.9 [21, 22]. When raising the concentration of DNA in compound solution, up to the point of completely binding, the decrease in absorbance intensity was carefully observed. […]
ɛa is represented as the apparent absorption coefficient value for the MLCT band at a specific concentration of deoxyribonucleic acid and evaluated from Abs/[complex]. ɛ f and ɛb are the absorption coefficients for the chemical substance alone and completely interacted with deoxyribonucleic acid, respectively. ∆Amax = (Amax–A0); ∆A=(Ax–A0), where A0, Ax and Amax are denoted as the optical density of chemical substances alone, the middle form, and the completely interacted form with deoxyribonucleic acid, respectively.

[4] = Hydroxyl radical scavenging assay; assay type: biochemical; details: 230 nm
[5] = tested on: Chromo bacterium violaceum; assay: Agar disc diffusion antibacterial test; details: C, (-) Chromo bacterium violaceum
Candida albicans = assay: Agar disc diffusion antifungal test; details: I
[6] = 20 µL of 100 µM on 6 mm disc, Control (DMSO) = 6 mm
[7] = compound 50 μM, DNA 0–50 μM, Tris-HCl buffer pH 7.4, 25 °C
[8] = intrinsic DNA binding constant, UV–Vis titration

## [Cu+2].[O-]c1ccccc1N=Cc1ccc(N2CCOCC2)cc1.[O-]c1ccccc1N=Cc1ccc(N2CCOCC2)cc1.c1cnc2c(c1)ccc1cccnc12 [(1b), [Cu^II(L)2(phen)]]
CT-DNA [1]; Cp/Cf vs [DNA]
  Kb, Method II: 35514 M⁻¹
CT-DNA [1]; Ip^2 vs (Ipo^2 − Ip^2)/[DNA]
  Kb, Method III: 21695 M⁻¹
CT-DNA [1]; Nernst equation, Ant.log nEs°/0.0591, n = 1
  Kred/Koxi (Calcd): 3.2434
CT-DNA [1]; from method I binding constants
  Kred/Koxi Found (I): 1.2053
CT-DNA [1]; log (1/[DNA]) vs log (I/I0 − I), oxidation
  Kb, Method I, Oxi: 17320 M⁻¹
CT-DNA [1]; log (1/[DNA]) vs log (I/I0 − I), reduction
  Kb, Method I, Red: 20878 M⁻¹
CT-DNA [1]; method II
  S (binding site size): 0.267 bp
Bacillus cereus; [6]
  diameter of clear zone inhibition: 10 mm
Bacillus cereus; (T–C)/T × 100
  Inhibition %: 40%
[2]; 40 µM
  % Inhibition, DPPH: 18.11%
[2]; 80 µM
  % Inhibition, DPPH: 30.88%
[2]; 120 µM
  % Inhibition, DPPH: 36.82%
[2]; 160 µM
  % Inhibition, DPPH: 52.42%
[2]; 200 µM
  % Inhibition, DPPH: 58.65%
[2]; 240 µM
  % Inhibition, DPPH: 70.12%
[2]
  IC50: 160 µM
Mucor indicus; [6]
  diameter of clear zone inhibition: 10 mm
Mucor indicus; (T–C)/T × 100
  Inhibition %: 40%
CT-DNA [3]; DNA binding, UV–Vis titration
  ΔGb° values, range over all methods (WS, BH, SK): −24.58 to −25.12 kJmol^−1
CT-DNA [3]; [7]
  % H (hypochromism): 56.88%
  Δλ nm (red shift on binding to CT-DNA): 7 nm
CT-DNA [3]; [8]
  Kb, BH–I (Benesi–Hildebrand method I): 25359 M⁻¹
  Kb, BH–II (Benesi–Hildebrand method II): 25251 M⁻¹
  Kb, SK–I (Sakthi–Krause method I): 20314 M⁻¹
  Kb, SK–II (Sakthi–Krause method II): 21747 M⁻¹
  Kb, WS–I (Wolfe-Shimmer method I): 20610 M⁻¹
  Kb, WS–II (Wolfe-Shimmer method II): 21357 M⁻¹
CT-DNA [3]; −RT ln Kb, T = 298 K
  ΔGb°, BH–I: −25.12 kJmol^−1
  ΔGb°, BH–II: −25.11 kJmol^−1
  ΔGb°, SK–I: −24.58 kJmol^−1
  ΔGb°, SK–II: −24.74 kJmol^−1
  ΔGb°, WS–I: −24.61 kJmol^−1
  ΔGb°, WS–II: −24.70 kJmol^−1
[4]; 40 µM
  % Inhibition, hydroxyl radical: 09.94%
[4]; 80 µM
  % Inhibition, hydroxyl radical: 18.86%
[4]; 120 µM
  % Inhibition, hydroxyl radical: 32.85%
[4]; 160 µM
  % Inhibition, hydroxyl radical: 39.84%
[4]; 200 µM
  % Inhibition, hydroxyl radical: 51.93%
[4]; 240 µM
  % Inhibition, hydroxyl radical: 62.05%
[4]; read-out: IC50, hydroxyl radical inhibition
  IC50: 200 µM
[5]; [6]
  diameter of clear zone inhibition: 11 mm
[5]; (T–C)/T × 100
  Inhibition %: 45%
Candida albicans; [6]
  diameter of clear zone inhibition: 11 mm
Candida albicans; (T–C)/T × 100
  Inhibition %: 45%
